Reference: US20250263383A1, “NOVEL INHIBITORS OF GUANOSINE MONOPHOSPHATE SYNTHETASE AS THERAPEUTIC AGENTS” (University of Southern California, priority 2018, published 2025)
pIC50: −log10 of the molar value.

Assays:
recombinant human GMPS = recombinant human GMPS (Homo sapiens (Human), UniProt P49915); assay: enzymatic assay against recombinant GMPS, UV absorbance at 290 nm; conditions: for IC50 against GMPS, in words: recombinant GMPS; for pIC50: recombinant human GMPS
Method: The potency of the five compounds was tested against recombinant GMPS in an enzymatic assay by monitoring UV absorbance at 290 nm and by determining an IC50.

HL-60(TB) cells = assay: Sulforhodamin B viability assay; assay type: cell-based; conditions: Leukemia, negative values represent cell mortality percentage
[1] = tested on: eight distinct cancer cell lines; assay: Sulforhodamin B viability assay, all cell lines; assay type: cell-based; conditions: across all the eight cell lines tested
UO-31 cells = assay: Sulforhodamin B viability assay; assay type: cell-based; conditions: UO-31, Renal Cancer; negative values represent cell mortality percentage
SK-MEL-5 cells = assay: Sulforhodamin B viability assay; assay type: cell-based; conditions: SK-MEL-5, Melanoma; negative values represent cell mortality percentage
OVCAR-5 cells = assay: Sulforhodamin B viability assay; assay type: cell-based; conditions: OVCAR-5, Ovarian Cancer; negative values represent cell mortality percentage
SF-539 cells = assay: Sulforhodamin B viability assay; assay type: cell-based; conditions: SF-539, CNS Cancer; negative values represent cell mortality percentage
NCI-H23 cells = assay: Sulforhodamin B viability assay; assay type: cell-based; conditions: NCI-H23, Non-Small Cell Lung Cancer; negative values represent cell mortality percentage
HT29 cells = assay: Sulforhodamin B viability assay; assay type: cell-based; conditions: HT29, Colon Cancer; negative values represent cell mortality percentage
BT-549 cells = assay: Sulforhodamin B viability assay; assay type: cell-based; conditions: BT-549, Breast Cancer; negative values represent cell mortality percentage

recombinant human GMPS, sequence (P49915 whole entry): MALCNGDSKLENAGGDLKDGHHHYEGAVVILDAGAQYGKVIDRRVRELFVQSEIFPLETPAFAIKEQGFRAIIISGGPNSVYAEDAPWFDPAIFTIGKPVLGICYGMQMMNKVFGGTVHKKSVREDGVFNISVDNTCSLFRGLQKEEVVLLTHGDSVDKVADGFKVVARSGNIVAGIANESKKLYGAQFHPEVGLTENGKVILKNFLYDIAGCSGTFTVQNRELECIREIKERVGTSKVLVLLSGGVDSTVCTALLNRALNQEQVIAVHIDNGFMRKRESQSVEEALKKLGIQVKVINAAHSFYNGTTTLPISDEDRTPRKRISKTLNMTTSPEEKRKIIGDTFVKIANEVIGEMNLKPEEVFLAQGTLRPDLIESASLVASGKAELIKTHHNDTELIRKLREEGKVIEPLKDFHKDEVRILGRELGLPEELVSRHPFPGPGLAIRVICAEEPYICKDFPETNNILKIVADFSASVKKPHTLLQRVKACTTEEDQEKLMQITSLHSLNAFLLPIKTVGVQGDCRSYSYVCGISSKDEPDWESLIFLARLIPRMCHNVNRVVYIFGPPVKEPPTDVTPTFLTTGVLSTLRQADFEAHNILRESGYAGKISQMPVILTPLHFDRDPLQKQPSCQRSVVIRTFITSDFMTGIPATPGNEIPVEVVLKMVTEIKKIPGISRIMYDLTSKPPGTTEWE

Row | SMILES | IC50 against GMPS, in words (recombinant human GMPS) | pIC50 (recombinant human GMPS) | Cell survival (HL-60(TB) cells) | cell death [1] | Cell survival (UO-31 cells) | Cell survival (SK-MEL-5 cells) | Cell survival (OVCAR-5 cells) | Cell survival (SF-539 cells) | Cell survival (NCI-H23 cells) | Cell survival (HT29 cells) | Cell survival (BT-549 cells)
1 | C#CCOc1cccc(C(=O)Nc2cccc(NC(=O)CCl)c2)c1 [Compound 5, N-(3-(2-chloroacetamido)phenyl)-3-(prop-2-yn-1-yloxy)benzamide] | less active | < 6.00 | – | – | – | – | – | – | – | – | –
2 | COc1cccc(Nc2ncnc3ccc(NC(C)=O)cc23)c1 [Compound 3, N-(4-((3-methoxyphenyl)amino)quinazolin-6-yl) acetamide] | less active | < 6.00 | – | – | – | – | – | – | – | – | –
3 | C#CCOc1cccc(Nc2ncnc3ccc(NC(=O)CCl)cc23)c1 [Compound 1, 2-chloro-N-(4-((3-(prop-2-yn-1-yloxy)phenyl)amino)quinazolin-6-yl) acetamide] | – | – | −58.4% | > 50% | −87.8% | −92.8% | −70.1% | −86.6% | −66.8% | −78.6% | −68.9%
